Experimental data reported in the supplement of paper PMC10307832.

Tests used:
Assay in all cases: relative viability (nuclei count vs DMSO), 5 days (fraction); higher = more cells survive
[1] = compound: CC1=CC=C(C=C1)C(=O)CN2C3=C(CCCC3)SC2=N [Pifithrin_alpha] + COc1cc2c(Oc3ccc(NC(=O)C4(C(=O)Nc5ccc(F)cc5)CC4)cc3F)ccnc2cc1OCCCN1CCOCC1 [Foretinib] (partner 0.25 µM)
Outline: (§1)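 Five library-drug doses in √10 steps were combined with a fixed anchor-drug dose, or a single drug was given alone, by pin tool to lung cancer cell lines in 1536-well plates the day after seeding. Nuclei were stained and counted after 5 days. Relative viability is the nuclei count in treated wells over that in vehicle wells, taken as the median of duplicate plates.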

Bemcentinib + Tozasertib = compound: Nc1nc(Nc2ccc3c(c2)CC[C@@H](N2CCCC2)CC3)nn1-c1cc2c(nn1)-c1ccccc1CCC2 [Bemcentinib] + Cc1cc(Nc2cc(N3CCN(C)CC3)nc(Sc3ccc(NC(=O)C4CC4)cc3)n2)n[nH]1 [Tozasertib] (partner 0.1 µM)
Outline: as §1

Bemcentinib + Decitabine = compound: Nc1nc(Nc2ccc3c(c2)CC[C@@H](N2CCCC2)CC3)nn1-c1cc2c(nn1)-c1ccccc1CCC2 [Bemcentinib] + Nc1ncn([C@H]2C[C@H](O)[C@@H](CO)O2)c(=O)n1 [Decitabine] (partner 2 µM)
Outline: as §1

Axitinib + Pemetrexed = compound: CNC(=O)c1ccccc1Sc1ccc2c(/C=C/c3ccccn3)n[nH]c2c1 [Axitinib] + Nc1nc2[nH]cc(CCc3ccc(C(=O)N[C@@H](CCC(=O)O)C(=O)O)cc3)c2c(=O)[nH]1 [Pemetrexed] (partner 0.2 µM)
Outline: as §1

Row | Cell Line | relative viability ([1]; first compound 1 µM) | relative viability ([1]; first compound 3.162 µM) | relative viability ([1]; first compound 10 µM) | relative viability ([1]; first compound 31.62 µM) | relative viability ([1]; first compound 100 µM) | relative viability (Bemcentinib + Tozasertib; first compound 0.04 µM) | relative viability (Bemcentinib + Tozasertib; first compound 0.1265 µM) | relative viability (Bemcentinib + Tozasertib; first compound 0.4 µM) | relative viability (Bemcentinib + Tozasertib; first compound 1.265 µM) | relative viability (Bemcentinib + Tozasertib; first compound 4 µM) | relative viability (Bemcentinib + Decitabine; first compound 0.04 µM) | relative viability (Bemcentinib + Decitabine; first compound 0.1265 µM) | relative viability (Bemcentinib + Decitabine; first compound 0.4 µM) | relative viability (Bemcentinib + Decitabine; first compound 1.265 µM) | relative viability (Bemcentinib + Decitabine; first compound 4 µM) | relative viability (Axitinib + Pemetrexed; first compound 0.005 µM) | relative viability (Axitinib + Pemetrexed; first compound 0.01581 µM) | relative viability (Axitinib + Pemetrexed; first compound 0.05 µM) | relative viability (Axitinib + Pemetrexed; first compound 0.1581 µM) | relative viability (Axitinib + Pemetrexed; first compound 0.5 µM)
1 | RERF-LC-KJ | 0.886 | 0.829 | 0.792 | 0.813 | 0.786 | 0.557 | 0.531 | 0.485 | 0.553 | 0.466 | 0.676 | 0.729 | 0.784 | 0.855 | 0.752 | 0.435 | 0.443 | 0.485 | 0.491 | 0.502
2 | NCI-H1734 | 0.868 | 0.825 | 0.814 | 0.763 | 0.793 | 0.245 | 0.28 | 0.25 | 0.256 | 0.27 | 0.401 | 0.533 | 0.595 | 0.472 | 0.447 | 0.413 | 0.432 | 0.412 | 0.435 | 0.429
3 | NCI-H2087 | 1.1 | 1.21 | 1.07 |  | 1.03 | 0.226 | 0.251 | 0.276 | 0.28 | 0.252 | 0.295 | 0.318 | 0.281 | 0.265 | 0.302 | 0.766 | 0.593 | 0.597 | 0.7 | 0.728
4 | EKVX | 0.744 |  | 0.736 | 0.731 | 0.636 | 0.39 | 0.468 | 0.39 | 0.437 | 0.374 | 0.325 | 0.345 | 0.292 | 0.345 | 0.39 | 0.428 | 0.376 | 0.457 | 0.417 | 0.398
5 | NCI-H1915 | 1.09 | 1.15 |  |  | 1.12 | 0.511 | 0.462 | 0.44 | 0.468 | 0.443 | 0.24 | 0.25 | 0.255 | 0.252 | 0.257 | 0.497 | 0.494 | 0.501 | 0.522 | 0.536
6 | NCI-H3122 | 0.932 | 0.927 | 0.854 |  | 0.891 |  | 0.488 | 0.402 | 0.427 | 0.381 | 0.429 | 0.385 | 0.456 | 0.449 | 0.491 | 0.218 | 0.196 | 0.219 | 0.193 | 0.212
7 | BEN | 0.357 | 0.736 | 0.697 | 0.508 | 0.625 | 0.464 | 0.446 | 0.569 | 0.579 | 0.461 | 0.696 | 0.784 | 0.762 | 0.629 | 0.677 | 0.73 | 0.858 | 0.801 | 0.859 | 0.751
8 | 201T | 0.928 | 0.745 | 0.684 | 0.627 | 0.681 | 0.932 | 1.06 | 0.94 | 0.868 | 0.964 | 0.827 | 0.903 | 0.893 | 0.979 | 0.868 | 0.379 | 0.3 | 0.294 | 0.302 | 0.332
9 | NCI-H1666 | 0.969 | 0.933 | 0.867 | 0.781 | 0.763 | 0.605 | 0.619 | 0.621 | 0.594 | 0.595 | 0.618 | 0.872 | 0.722 | 0.592 | 0.632 | 0.865 | 0.972 | 0.899 | 0.958 | 0.873
10 | NCI-H1993 | 0.721 | 0.566 | 0.694 | 0.661 | 0.674 | 0.548 | 0.551 | 0.592 | 0.56 | 0.588 | 0.541 | 0.49 | 0.627 | 0.577 | 0.68 | 0.606 | 0.601 | 0.604 | 0.628 | 0.541
11 | NCI-H460 | 1.06 | 0.974 | 0.933 | 0.492 | 0.631 | 0.432 | 0.619 | 0.525 | 0.364 | 0.524 | 0.479 | 0.595 | 0.605 | 0.483 | 0.5 | 0.0553 | 0.0645 | 0.0676 | 0.0593 | 0.0611
12 | NCI-H2170 | 0.985 | 1.02 | 0.988 | 0.931 | 0.952 | 0.73 | 0.764 | 0.763 | 0.658 | 0.644 | 0.457 | 0.48 | 0.463 | 0.519 | 0.479 | 0.281 | 0.252 | 0.261 | 0.27 | 0.27
13 | LC-2-ad |  | 0.902 | 0.904 |  | 0.871 | 0.451 | 0.478 | 0.451 | 0.486 | 0.442 | 0.79 | 0.724 | 0.824 | 0.817 | 0.756 | 0.261 | 0.257 | 0.268 | 0.271 | 0.277
14 | HCC-78 | 0.592 | 0.551 | 0.486 | 0.467 | 0.523 | 0.43 | 0.445 | 0.421 |  | 0.355 | 0.691 | 0.655 | 0.636 | 0.655 | 0.637 | 0.919 | 0.941 | 0.933 | 0.974 | 0.962
15 | NCI-H322M | 0.91 | 1.03 | 0.964 | 0.929 | 0.839 | 0.5 | 0.582 | 0.483 | 0.527 | 0.525 | 0.686 | 0.731 | 0.716 | 0.841 | 0.704 | 0.586 | 0.691 | 0.679 | 0.628 | 0.627
16 | NCI-H1651 | 0.933 | 0.775 | 0.787 | 0.583 | 0.7 | 0.671 | 0.835 | 0.87 | 0.77 | 0.635 | 0.588 | 0.623 | 0.678 | 0.491 | 0.584 | 0.567 | 0.586 | 0.587 | 0.618 | 0.657
17 | SW 900 | 0.878 | 0.724 | 0.836 | 0.837 | 0.424 | 0.458 | 0.807 | 0.54 | 0.611 | 0.529 | 0.406 | 0.479 | 0.432 | 0.428 | 0.398 | 0.479 |  | 0.469 | 0.505 | 0.479
18 | NCI-H1437 | 1.4 | 1.33 | 1.21 | 0.794 | 0.93 | 0.399 | 0.435 | 0.436 | 0.421 | 0.401 | 0.58 | 0.602 | 0.558 | 0.584 | 0.571 | 0.321 | 0.325 | 0.324 | 0.336 | 0.324
19 | NCI-H1355 | 0.949 | 0.743 | 0.663 | 0.587 | 0.65 | 0.529 | 0.569 | 0.562 | 0.61 | 0.538 | 0.341 | 0.35 | 0.376 | 0.347 | 0.431 | 1.01 | 1.03 | 1.09 | 1.03 | 1.01
20 | NCI-H2342 | 1.14 | 1.01 | 0.953 | 1.09 | 1.01 | 0.574 | 0.429 | 0.492 | 0.464 | 0.516 | 0.746 | 0.768 | 0.771 | 0.73 | 0.827 | 0.753 | 0.792 | 0.707 | 0.782 | 0.669
21 | NCI-H1755 | 0.819 | 0.833 | 0.849 | 0.674 | 0.862 | 0.64 | 0.742 | 0.626 | 0.607 | 0.613 | 0.724 | 0.671 | 0.726 | 0.674 | 0.718 | 0.438 | 0.448 | 0.403 | 0.509 | 0.403
22 | SK-LU-1 | 0.884 | 0.95 | 0.84 |  | 0.858 | 0.342 | 0.363 | 0.283 | 0.367 | 0.335 | 0.533 | 0.764 | 0.74 | 0.615 | 0.623 | 1.01 | 1 | 1.09 | 1.03 | 1.13
23 | NCI-H2126 |  | 0.988 | 0.946 | 0.96 | 1.1 | 0.896 | 0.822 | 0.788 | 0.856 | 0.837 | 0.582 | 0.588 | 0.601 | 0.634 | 0.557 | 0.679 | 0.708 | 0.689 | 0.75 | 0.737
24 | NCI-H1793 |  | 0.539 | 0.61 | 0.642 | 0.483 | 0.313 | 0.371 | 0.314 |  | 0.371 | 0.475 | 0.495 | 0.5 | 0.549 | 0.586 | 1.04 | 0.568 | 1.01 | 0.821 | 0.791
25 | HOP-62 | 1.17 | 1.16 | 1.18 | 1.03 | 1.19 | 0.379 | 0.413 | 0.35 | 0.39 | 0.387 | 0.25 | 0.198 | 0.255 | 0.207 | 0.216 | 0.378 | 0.328 | 0.31 | 0.41 | 0.482
26 | NCI-H1395 | 0.899 | 0.98 | 0.975 | 0.748 | 0.712 | 0.759 | 0.763 | 0.782 | 0.739 | 0.753 |  | 0.683 | 0.757 | 0.737 | 0.745 | 0.962 | 0.761 | 0.832 | 0.683 | 0.736
27 | NCI-H2347 | 0.684 |  | 1.05 | 0.689 | 0.804 | 0.56 | 0.602 | 0.525 | 0.593 | 0.72 | 0.653 | 0.573 | 0.665 | 0.678 | 0.639 | 0.443 | 0.39 | 0.441 | 0.458 | 0.446
